Counter-ions that a name gives are not always drawn.
Compound | melting point
C=CCNc1nc(NCC=C)c2cc(NC)ccc2n1 (as salt: hydrochloride) | 155 to 158 °C
C=CCNc1nc(NCC=C(C)C)c2scc(C)c2n1 [Example 101, 2-Allylamino-7-methyl-4-(3-methyl-2-butenylamino)thieno[3,2-d]pyrimidine] | 114 to 115 °C
C=CCNc1nc(NCC)nc2ccc([N+](=O)[O-])cc12 [Example 17, 4-Allylamino-2-ethylamino-6-nitroquinazoline] | 227 to 228 °C
C=CCNc1nc(NC(CO)CO)c2scc(C)c2n1 [Example 73, 2-Allylamino-4-(1,3-dihydroxypropan-2-yl)amino-7-methylthieno[3,2-d]pyrimidine] | 163 to 164 °C
C=CCNc1nc(NC(=O)NC2CCCCC2)c2scc(C)c2n1 [Example 93, 2-Allylamino-4-(cyclohexylcarbamoyl)amino-7-methylthieno[3,2-d]pyrimidine] | 152 to 153 °C
C=CCNc1nc(NCCCCCCCCCCCC)nc2ccc([N+](=O)[O-])cc12 [Example 48, 4-Allylamino-2-dodecylamino-6-nitroquinazoline] | 148 to 155 °C
C=CCNc1nc(NCC(C)(C)C)c2scc(C)c2n1 [Example 67, 2-Allylamino-7-methyl-4-neopentylaminothieno[3,2-d] pyrimidine] | 90 to 92 °C
C=CCNc1nc(NC(=O)NCCC)nc2ccc([N+](=O)[O-])cc12 [Example 45, 4-Allylamino-6-nitro-2-(propylcarbamoyl)aminoquinazoline] | 254 to 255 °C
C=CCNc1nc(N(CC=C)CC=C)c2scc(C)c2n1 (as salt: hydrochloride) [Example 71, 2-Allylamino-4-diallylamino-7-methylthieno[3,2-d] pyrimidine hydrochloride] | 76 to 78 °C (dec.)
C=CCNc1nc(NC(C)(C)C)c2cc([N+](=O)[O-])ccc2n1 (as salt: hydrochloride) | 208 to 209 °C
C=CCNc1nc(NCC=C(C)C)c2cc([N+](=O)[O-])ccc2n1 [Example 59, 2-Allylamino-4-(3-methyl-2-butenylamino)-6-nitroquinazoline] | 209 to 210 °C
C=CCNC(=O)CCNc1nc(NCC=C)nc2c(C)csc12 [Example 112, 2-Allylamino-4-[2-(allylcarbamoyl)ethylamino]-7-methylthieno[3,2-d]pyrimidine] | 95 to 96 °C
C=CCNc1nc(NCC(=C)C)c2scc(C)c2n1 [Example 100, 2-Allylamino-7-methyl-4-(2-methyl-2-propenylamino)thieno[3,2-d]pyrimidine] | 83 °C
C=CCNc1nc(N(CC=C)CC=C)nc2ccc([N+](=O)[O-])cc12 [Example 9, 4-Allylamino-2-diallylamino-6-nitroquinazoline] | 167 to 168 °C
C=CCNc1nc(NC(=O)N2CCCC2)c2scc(C)c2n1 [Example 98, 2-Allylamino-7-methyl-4-(1-pyrrolidinylcarbonyl)aminothieno[3,2-d]pyrimidine] | 98 to 101 °C
C=CCNc1nc(NC(C)C=C)c2cc([N+](=O)[O-])ccc2n1 (stereo not shown) [Example 63, 2-Allylamino-4-(1-methyl-2-propenylamino)-6-nitroquinazoline] | 172 to 173 °C
C=CCNc1nc(NCCOC)nc2c(C)csc12 [Example 85, 4-Allylamino-2-(2-methoxyethylamino)-7-methylthieno[3,2-d] pyrimidine] | 87 to 88 °C
C=CCNc1nc(NC)nc2ccc([N+](=O)[O-])cc12 [Example 16, 4-Allylamino-2-methylamino-6-nitroquinazoline] | 238 to 239 °C
C=CCNc1nc(NCC(F)(F)F)c2cc([N+](=O)[O-])ccc2n1 [Example 55, 2-Allylamino-4-(2,2,2-trifluoroethylamino)-6-nitroquinazoline] | 215 to 216 °C
C=CCNc1nc(N(CC=C)CC=C)nc2c(C)csc12 (as salt: hydrochloride) | 136 to 138 °C (dec.)
C=CCNc1nc(NC(C)C=C)nc2ccc([N+](=O)[O-])cc12 (stereo not shown) [Example 65, 4-Allylamino-2-(1-methyl-2-propenylamino)-6-nitroquinazoline] | 123 to 124 °C
C=CCNc1nc(NC/C=C/c2ccccc2)c2cc([N+](=O)[O-])ccc2n1 [Example 23, 2-Allylamino-4-trans-cinnamylamino-6-nitroquinazoline] | 206 to 208 °C
C=CC(C)Nc1nc(NC(C)C=C)c2cc([N+](=O)[O-])ccc2n1 (stereo not shown) [Example 64, 2,4-Bis(1-methyl-2-propenylamino)-6-nitroquinazoline] | 122 to 125 °C
C=CCNc1nc(NCc2ccco2)nc2ccc([N+](=O)[O-])cc12 (as salt: hydrochloride) [Example 33, 4-Allylamino-2-furfurylamino-6-nitroquinazoline hydrochloride] | 217 to 218 °C
C=CCNc1nc(NN2CCCCC2)nc2ccc([N+](=O)[O-])cc12 [Example 37, 4-Allylamino-6-nitro-2-piperidinoaminoquinazoline] | 221 to 222 °C

Compound | melting point
C=CCNc1nc(NC/C=C/c2ccccc2)c2scc(C)c2n1 [Example 102, 2-Allylamino-4-(trans-cinnamylamino)-7-methylthieno[3,2-d] pyrimidine] | 82 to 84 °C
C=CCNc1nc(NCC(F)(F)F)nc2ccc([N+](=O)[O-])cc12 [Example 56, 4-Allylamino-2-(2,2,2-trifluoroethylamino)-6-nitroquinazoline] | 221 to 222 °C
C=CCNc1nc(NCc2ccccc2)c2scc(C)c2n1 [Example 69, 2-Allylamino-4-benzylamino-7-methylthieno[3,2-d] pyrimidine] | 97 to 98 °C
C=CCNc1nc(NCc2ccccn2)nc2ccc([N+](=O)[O-])cc12 [Example 54, 4-Allylamino-6-nitro-2-(2-pyridylmethylamino)quinazoline] | 202 to 203 °C
C=CCNc1nc(NC/C=C/C)nc2ccc([N+](=O)[O-])cc12 [Example 30, 4-Allylamino-2-(trans-2-butenylamino)-6-nitroquinazoline] | 188 to 189 °C
C=CCN(C(=O)NC(C)(C)C)c1nc(NC(=O)NC(C)(C)C)c2cc([N+](=O)[O-])ccc2n1 [Example 41, 2-[N-allyl-N-(t-butylcarbamoyl)amino]-4-(t-butylcarbamoyl)amino-6-nitroquinazoline] | 105 to 106 °C
C=CCNc1nc(NCCC(=O)N2CCCCC2)nc2ccc([N+](=O)[O-])cc12 [Example 53, 4-Allylamino-6-nitro-2-[2-(piperidinocarbonyl)ethylamino] quinazoline] | 178 to 179 °C
C#CCNc1nc(NCC=C)c2cc([N+](=O)[O-])ccc2n1 [Example 29, 4-Allylamino-6-nitro-2-(2-propynylamino)quinazoline] | 192 to 193 °C
C=CCNc1nc(NCCOC)nc2ccc([N+](=O)[O-])cc12 [Example 8, 4-Allylamino-2-(2-methoxyethylamino)-6-nitroquinazoline] | 164 to 165 °C
C=CCNc1nc(NC(C)(C)C)nc2ccc([N+](=O)[O-])cc12 [Example 19, 4-Allylamino-2-t-butylamino-6-nitroquinazoline] | 139 to 140 °C
C=CCNc1nc(NN(C)C)c2cc([N+](=O)[O-])ccc2n1 [Example 46, 2-Allylamino-4-(2,2-dimethylhydrazino)-6-nitroquinazoline] | 145 to 146 °C
C=CCNc1nc(N2CCCCC2)c2cc([N+](=O)[O-])ccc2n1 [Example 13, 2-Allylamino-6-nitro-4-piperidinoquinazoline] | 123 to 124 °C
C=CCNc1nc(NC(C)C)c2scc(C)c2n1 [Example 77, 2-Allylamino-4-isopropylamino-7-methylthieno[3,2-d] pyrimidine] | 106 to 107 °C
C=CCNc1nc(NC(C)CC)c2cc([N+](=O)[O-])ccc2n1 (stereo not drawn) (as salt: hydrochloride) [Example 49, 2-Allyiamino-4-(l-methylpropylamino)-6-nitroquinazoline hydrochloride] | 176 to 177 °C
C=CCNc1nc(NCC=C)c2cc(N)ccc2n1 [Example 14, 2,4-Diallylamino-6-aminoquinazoline] | 212 to 215 °C
C=CCNc1nc(NC23CC4CC(CC(C4)C2)C3)c2cc([N+](=O)[O-])ccc2n1 [Example 52, 4-(1-Adamantylamino)-2-allylamino-6-nitroquinazoline] | 224 to 225 °C
C=CC(C)Nc1nc(NCCCC)nc2ccc([N+](=O)[O-])cc12 (stereo not shown) [Example 62, 2-Butylamino-4-(1-methyl-2-propenylamino)-6-nitroquinazoline] | 156 to 158 °C
C=CCNc1nc(NC(=O)C(C)(C)C)c2scc(C)c2n1 [Example 90, 2-Allylamino-7-methyl-4-pivaloylaminothieno[3,2-d] pyrimidine] | 88 to 89 °C
C=CCNc1nc(NCCCCCCCCCCCC)c2cc([N+](=O)[O-])ccc2n1 [Example 47, 2-Allylamino-4-dodecylamino-6-nitroquinazoline] | 154 to 155 °C
C=CCNc1nc(NCC=C)c2scc(Br)c2n1 [Example 111, 2,4-Diallylamino-7-bromothieno[3,2-d]pyrimidine] | 87 to 88 °C
C=CCNc1nc(NC2CCCCC2)c2scc(C)c2n1 (as salt: hydrochloride) [Example 70, 2-Allylamino-4-cyclohexylamino-7-methylthieno[3,2-d] pyrimidine hydrochloride] | 140 to 142 °C
C=CCNc1nc(NCC=C)c2scc(-c3ccccc3)c2n1 [Example 110, 2,4-Diallylamino-7-phenylthieno[3,2-d]pyrimidine] | 98 to 100 °C
C=CCNc1nc(NCCCC)c2cc([N+](=O)[O-])ccc2n1 [Example 24, 2-Allylamino-4-butylamino-6-nitroquinazoline] | 214 to 215 °C
C=CCNc1nc(NCCOCCC)nc2ccc([N+](=O)[O-])cc12 [Example 38, 4-Allylamino-6-nitro-2-(2-propoxyethylamino)quinazoline] | 169 to 170 °C

Reference: patent publication US20010006969A1, “PYRIMIDINE NUCLEUS-CONTAINING COMPOUND AND A MEDICAMENT CONTAINING THE SAME FOR A BLOOD OXYGEN PARTIAL PRESSURE AMELIORATION, AND A METHOD FOR PREPARING THE SAME” (priority 1997, published 2001)
